# Measurements taken from ChEMBL document CHEMBL2074261, “Transcellular transport of organic anions across a double-transfected Madin-Darby canine kidney II cell monolayer expressing both human organic anion-transporting polypeptide (OATP2/SLC21A6) and Multidrug resistance-associated protein 2 (MRP2/ABCC2)” (J Biol Chem, 2002).
# Biological target: Canalicular multispecific organic anion transporter 1/Solute carrier organic anion transporter family member 1B1 (Homo sapiens, UniProt Q92887+Q9Y6L6)
# Test: TP_TRANSPORTER: transepithelial transport (basal to apical) in MRP2- and OATP-C-expressing MDCKII cells
# Type: functional, cell-based
# Conditions: dog, mdck-ii
row,SMILES,Activity
1,C[C@H](CCC(=O)NCCS(=O)(=O)O)C1CC[C@H]2[C@@H]3CC[C@@H]4C[C@H](OS(=O)(=O)O)CC[C@]4(C)[C@H]3CC[C@]12C (some centres not stated),substrate [+]
2,CC[C@H](C)C(=O)O[C@H]1C[C@H](O)C=C2C=C[C@H](C)[C@H](CC[C@@H](O)C[C@@H](O)CC(=O)O)[C@H]21 [PRAVASTATIN],substrate [+]
